Source: US8802661B2, “C-28 amides of modified C-3 betulinic acid derivatives as HIV maturation inhibitors” (priority 2010, dated 2014)
Read-outs that look alike come from different tables or passages of the source.

System: recombinant NL4-3 virus (Renilla luciferase in nef, Gag P373S)
Experiment: HIV Cell Culture Assay (luciferase reporter virus in MT-2 cells)
Assay type: cell-based
Outline: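 Read-out is Renilla luciferase, measured immediately after adding a premixed lysis/Dual Luciferase reagent. The reporter virus, NL4-3 with luciferase replacing part of nef plus Gag P373S, infected MT-2 cells for 4–5 days under serially diluted inhibitor.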

SMILES | EC50 (NL43, read-out: EC50 Group) | EC50 (NL43)
C=C(C)[C@@H]1CC[C@]2(C(=O)NCCN(CCO)CCO)CC[C@]3(C)[C@H](CC[C@@H]4[C@@]5(C)CC=C(c6ccc(C(=O)O)cc6)C(C)(C)[C@@H]5CC[C@]43C)[C@@H]12 [Example 76, 4-((1R,3aS,5aR,5bR,7aR,11aS,11bR,13aR,13bR)-3a-(2-(bis(2-hydroxyethyl)amino)ethylcarbamoyl)-5a,5b,8,8,11a-pentamethyl-1-(prop-1-en-2-yl)-2,3,3a,4,5,5a,5b,6,7,7a,8,11,11a,11b,12,13,13a,13b-octadecahydro-1H-cyclopenta[a]chrysen-9-yl)benzoic acid] | < 100 nM | –
C=C(C)[C@@H]1CC[C@]2(C(=O)N(CCO)CCN(C)C)CC[C@]3(C)[C@H](CC[C@@H]4[C@@]5(C)CC=C(c6ccc(C(=O)O)cc6)C(C)(C)[C@@H]5CC[C@]43C)[C@@H]12 [Example 77, 4-((1R,3aS,5aR,5bR,7aR,11aS,11bR,13aR,13bR)-3a-((2-(dimethylamino)ethyl)(2-hydroxyethyl)carbamoyl)-5a,5b,8,8,11a-pentamethyl-1-(prop-1-en-2-yl)-2,3,3a,4,5,5a,5b,6,7,7a,8,11,11a,11b,12,13,13a,13b-octadecahydro-1H-cyclopenta[a]chrysen-9-yl)benzoic acid] | > 100 nM | –
CC(C)[C@@H]1CC[C@]2(C(=O)NCCN(C)C)CC[C@]3(C)[C@H](CC[C@@H]4[C@@]5(C)CC=C(c6ccc(C(=O)O)cc6)C(C)(C)[C@@H]5CC[C@]43C)[C@@H]12 [Example 78, 4-((1S,3aS,5aR,5bR,7aR,11aS,11bR,13aR,13bR)-3a-(2-(dimethylamino)ethylcarbamoyl)-1-isopropyl-5a,5b,8,8,11a-pentamethyl-2,3,3a,4,5,5a,5b,6,7,7a,8,11,11a,11b,12,13,13a,13b-octadecahydro-1H-cyclopenta[a]chrysen-9-yl)benzoic acid] | < 100 nM | –
C=C(C)[C@@H]1CC[C@]2(C(=O)NCC(O)C(=O)O)CC[C@]3(C)[C@H](CC[C@@H]4[C@@]5(C)CC=C(c6ccc(C(=O)O)cc6)C(C)(C)[C@@H]5CC[C@]43C)[C@@H]12 (stereo partly drawn) [Example 79, 4-((1R,3aS,5aR,5bR,7aR,11aS,11bR,13aR,13bR)-3a-(2-carboxy-2-hydroxyethylcarbamoyl)-5a,5b,8,8,11a-pentamethyl-1-(prop-1-en-2-yl)-2,3,3a,4,5,5a,5b,6,7,7a,8,11,11a,11b,12,13,13a,13b-octadecahydro-1H-cyclopenta[a]chrysen-9-yl)benzoic acid] | < 100 nM | –
C=C(C)[C@@H]1CC[C@]2(C(=O)NCCN(C)CC(=O)O)CC[C@]3(C)[C@H](CC[C@@H]4[C@@]5(C)CC=C(c6ccc(C(=O)O)cc6)C(C)(C)[C@@H]5CC[C@]43C)[C@@H]12 [Example 80, 4-((1R,3aS,5aR,5bR,7aR,11aS,11bR,13aR,13bR)-3a-(2-((carboxymethyl)(methyl)amino)ethylcarbamoyl)-5a,5b,8,8,11a-pentamethyl-1-(prop-1-en-2-yl)-2,3,3a,4,5,5a,5b,6,7,7a,8,11,11a,11b,12,13, 13a,13b-octadecahydro-1H-cyclopenta[a]chrysen-9-yl)benzoic acid] | < 100 nM | –
C=C(C)[C@@H]1CC[C@]2(C(=O)NCCNCC(=O)O)CC[C@]3(C)[C@H](CC[C@@H]4[C@@]5(C)CC=C(c6ccc(C(=O)O)cc6)C(C)(C)[C@@H]5CC[C@]43C)[C@@H]12 [Example 81, 4-((1R,3aS,5aR,5bR,7aR,11aS,11bR,13aR,13bR)-3a-(2-(carboxymethylamino)ethylcarbamoyl)-5a,5b,8,8,11a-pentamethyl-1-(prop-1-en-2-yl)-2,3,3a,4,5,5a,5b,6,7,7a,8,11,11a,11b,12,13,13a,13b-octadecahydro-1H-cyclopenta[a]chrysen-9-yl)benzoic acid] | < 100 nM | –
C=C(C)[C@@H]1CC[C@]2(C(=O)NCCS(=O)(=O)O)CC[C@]3(C)[C@H](CC[C@@H]4[C@@]5(C)CC=C(c6ccc(C(=O)O)cc6)C(C)(C)[C@@H]5CC[C@]43C)[C@@H]12 [Example 82, sodium 4-((1R,3aS,5aR,5bR,7aR,11aS,11bR,13aR,13bR)-5a,5b,8,8,11a-pentamethyl-1-(prop-1-en-2-yl)-3a-(2-sulfonatoethylcarbamoyl)-2,3,3a,4,5,5a,5b,6,7,7a,8,11,11a,11b,12,13,13a,13b-octadecahydro-1H-cyclopenta[a]chrysen-9-yl)benzoate] | – | 1230 nM
C=C(C)[C@@H]1CC[C@]2(C(=O)NCCN(CC)CC(=O)O)CC[C@]3(C)[C@H](CC[C@@H]4[C@@]5(C)CC=C(c6ccc(C(=O)O)cc6)C(C)(C)[C@@H]5CC[C@]43C)[C@@H]12 [Example 83, 4-((1R,3aS,5aR,5bR,7aR,11aS,11bR,13aR,13bR)-3a-(2-((carboxymethyl)(ethyl)amino)ethylcarbamoyl)-5a,5b,8,8,11a-pentamethyl-1-(prop-1-en-2-yl)-2,3,3a,4,5,5a,5b,6,7,7a,8,11,11a,11b,12,13,13a,13b-octadecahydro-1H-cyclopenta[a]chrysen-9-yl)benzoic acid] | < 100 nM | –
C=CNC(=O)[C@]12CC[C@@H](C(=C)C)[C@@H]1[C@H]1CC[C@@H]3[C@@]4(C)CC=C(c5ccc(C(=O)O)cc5)C(C)(C)[C@@H]4CC[C@@]3(C)[C@]1(C)CC2 [Example 84, 4-((1R,3aS,5aR,5bR,7aR,11aS,11bR,13aR,13bR)-5a,5b,8,8,11a-pentamethyl-1-(prop-1-en-2-yl)-3a-(vinylcarbamoyl)-2,3,3a,4,5,5a,5b,6,7,7a,8,11,11a,11b,12,13,13a,13b-octadecahydro-1H-cyclopenta[a]chrysen-9-yl)benzoic acid] | < 100 nM | –
C=C(C)[C@@H]1CC[C@]2(C(=O)NCCCN3CCS(=O)(=O)CC3)CC[C@]3(C)[C@H](CC[C@@H]4[C@@]5(C)CC=C(c6ccc(C(=O)O)cc6)C(C)(C)[C@@H]5CC[C@]43C)[C@@H]12 [Example 85, 4-((1R,3aS,5aR,5bR,7aR,11aS,11bR,13aR,13bR)-3a-((3-(1,1-dioxido-4-thiomorpholinyl)propyl)carbamoyl)-1-isopropenyl-5a,5b,8,8,11a-pentamethyl-2,3,3a,4,5,5a,5b,6,7,7a,8,11,11a,11b,12,13,13a,13b-octadecahydro-1H-cyclopenta[a]chrysen-9-yl)benzoic acid] | < 100 nM | –
C=C(C)[C@@H]1CC[C@]2(C(=O)NCCCn3ccnc3)CC[C@]3(C)[C@H](CC[C@@H]4[C@@]5(C)CC=C(c6ccc(C(=O)O)cc6)C(C)(C)[C@@H]5CC[C@]43C)[C@@H]12 [Example 86, 4-((1R,3aS,5aR,5bR,7aR,11aS,11bR,13aR,13bR)-3a-(3-(1H-imidazol-1-yl)propylcarbamoyl)-5a,5b,8,8,11a-pentamethyl-1-(prop-1-en-2-yl)-2,3,3a,4,5,5a,5b,6,7,7a,8,11,11a,11b,12,13,13a,13b-octadecahydro-1H-cyclopenta[a]chrysen-9-yl)benzoic acid] | < 100 nM | –
C=C(C)[C@@H]1CC[C@]2(C(=O)NCCCN3CCCC3=O)CC[C@]3(C)[C@H](CC[C@@H]4[C@@]5(C)CC=C(c6ccc(C(=O)O)cc6)C(C)(C)[C@@H]5CC[C@]43C)[C@@H]12 [Example 87, 4-((1R,3aS,5aR,5bR,7aR,11aS,11bR,13aR,13bR)-5a,5b,8,8,11a-pentamethyl-3a-(3-(2-oxopyrrolidin-1-yl)propylcarbamoyl)-1-(prop-1-en-2-yl)-2,3,3a,4,5,5a,5b,6,7,7a,8,11,11a,11b,12,13,13a,13b-octadecahydro-1H-cyclopenta[a]chrysen-9-yl)benzoic acid] | < 100 nM | –
C=C(C)[C@@H]1CC[C@]2(C(=O)NCCN(CC(=O)O)CC(=O)O)CC[C@]3(C)[C@H](CC[C@@H]4[C@@]5(C)CC=C(c6ccc(C(=O)O)cc6)C(C)(C)[C@@H]5CC[C@]43C)[C@@H]12 [Example 88, 2,2′-(2-((1R,3aS,5aR,5bR,7aR,11aS,11bR,13aR,13bR)-9-(4-carboxyphenyl)-5a,5b,8,8,11a-pentamethyl-1-(prop-1-en-2-yl)-2,3,3a,4,5,5a,5b,6,7,7a,8,11,11a,11b,12,13,13a,13b-octadecahydro-1H-cyclopenta[a]chrysene-3a-carboxamido)ethylazanediyl)diacetic acid] | > 100 nM | –
C=C(C)[C@@H]1CC[C@]2(C(=O)NCCN(CC)CCC(=O)O)CC[C@]3(C)[C@H](CC[C@@H]4[C@@]5(C)CC=C(c6ccc(C(=O)O)cc6)C(C)(C)[C@@H]5CC[C@]43C)[C@@H]12 [Example 89, 4-((1R,3aS,5aR,5bR,7aR,11aS,11bR,13aR,13bR)-3a-(2-((2-carboxyethyl)(ethyl)amino)ethylcarbamoyl)-5a,5b,8,8,11a-pentamethyl-1-(prop-1-en-2-yl)-2,3,3a,4,5,5a,5b,6,7,7a,8,11,11a,11b,12,13,13a,13b-octadecahydro-1H-cyclopenta[a]chrysen-9-yl)benzoic acid] | < 100 nM | –
C=C(C)[C@@H]1CC[C@]2(C(=O)NCCN(CCC(=O)O)CCC(=O)O)CC[C@]3(C)[C@H](CC[C@@H]4[C@@]5(C)CC=C(c6ccc(C(=O)O)cc6)C(C)(C)[C@@H]5CC[C@]43C)[C@@H]12 [Example 90, 3,3′-(2-((1R,3aS,5aR,5bR,7aR,11aS,11bR,13aR,13bR)-9-(4-carboxyphenyl)-5a,5b,8,8,11a-pentamethyl-1-(prop-1-en-2-yl)-2,3,3a,4,5,5a,5b,6,7,7a,8,11,11a,11b,12,13,13a,13b-octadecahydro-1H-cyclopenta[a]chrysene-3a-carboxamido)ethylazanediyl)dipropanoic acid] | > 100 nM | –
C=C(C)[C@@H]1CC[C@]2(C(=O)NCCNCCC(=O)O)CC[C@]3(C)[C@H](CC[C@@H]4[C@@]5(C)CC=C(c6ccc(C(=O)O)cc6)C(C)(C)[C@@H]5CC[C@]43C)[C@@H]12 [Example 91, 4-((1R,3aS,5aR,5bR,7aR,11aS,11bR,13aR,13bR)-3a-(2-(2-carboxyethylamino)ethylcarbamoyl)-5a,5b,8,8,11a-pentamethyl-1-(prop-1-en-2-yl)-2,3,3a,4,5,5a,5b,6,7,7a,8,11,11a,11b,12,13,13a,13b-octadecahydro-1H-cyclopenta[a]chrysen-9-yl)benzoic acid] | < 100 nM | –
